Results: patent US12622910B2, “Inhibitors of Bruton's tyrosine kinase and methods of their use” (Janssen Pharmaceutica NV, priority 2021, dated 2026)

What was measured:
[1] = Plasma protein binding, equilibrium dialysis; format: in vitro ADME, Sprague Dawley rat
Protocol: (§1) Additional Data on Preclinical PK Profile—Protein binding of the compound of Formula (III) was studied using an equilibrium dialysis method in plasma from human, cynomolgus monkey, beagle dog, Sprague Dawley rat, CD-1 mouse, and guinea pig at 0.25, 2.5, and 25 μM. […] In human and monkey, the plasma protein binding was concentration dependent. […] Free fraction of the compound of Formula (III) in liver microsomes from various species ranged from 75.1% to 87.9% at 0.25 mg/mL and from 58.9% to 86.5% at 1.0 mg/mL (Table 17). […] In hepatocytes, the compound of Formula (III) turnover followed a similar trend, with T1/2 ranging from 75.3 minutes in monkey to 278.1 minutes in human.

[2] = Blood-to-plasma concentration ratio; format: in vitro ADME; conditions: dog, fresh blood
[3] = Blood-to-plasma concentration ratio; format: in vitro ADME; conditions: mouse, fresh blood
[4] = Metabolic stability in liver microsomes; format: in vitro ADME, dog
Protocol: as §1

CYP3A4 (CYP3A) = CYP3A4 (CYP3A) (Homo sapiens, UniProt P08684); assay: Time-dependent inhibition of CYP3A in human liver microsomes; format: in vitro ADME; conditions: probe testosterone
Sequence of CYP3A4 (CYP3A) (P08684 2-503): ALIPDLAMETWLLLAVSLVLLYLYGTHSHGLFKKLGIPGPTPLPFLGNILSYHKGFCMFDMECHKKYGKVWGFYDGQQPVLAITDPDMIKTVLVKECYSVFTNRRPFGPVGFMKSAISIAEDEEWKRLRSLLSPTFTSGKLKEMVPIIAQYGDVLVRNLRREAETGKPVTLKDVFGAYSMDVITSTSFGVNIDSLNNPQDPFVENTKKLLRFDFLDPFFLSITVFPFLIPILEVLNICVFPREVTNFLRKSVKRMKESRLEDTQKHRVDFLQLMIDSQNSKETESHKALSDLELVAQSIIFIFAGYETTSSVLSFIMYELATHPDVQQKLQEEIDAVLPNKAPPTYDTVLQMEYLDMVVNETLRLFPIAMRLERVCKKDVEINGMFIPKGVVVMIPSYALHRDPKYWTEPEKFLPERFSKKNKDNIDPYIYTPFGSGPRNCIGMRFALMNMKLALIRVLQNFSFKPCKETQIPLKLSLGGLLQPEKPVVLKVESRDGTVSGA
Protocol: To assess the potential of the compound of Formula (III) to be a time-dependent inhibitor of CYP3A, human liver microsomes were preincubated for 30 minutes at 37° C. with the compound of Formula (III) at concentrations up to 10 μM, and CYP3A activity was measured using testosterone as a probe substrate. […] The potential of the compound of Formula (III) to induce CYPs at the transcriptional level was assessed using Puracyp™ DPX2 (CYP3A4, PXR) and DRE (CYP1A2, AhR) luciferase-reporter cell lines; rifampicin and omeprazole were used as positive controls for CYP3A and CYP1A induction, respectively. The activation by the compound of Formula (III) was <20% of positive control values for PXR (6.6% and 14.1% at 1 and 10 μM change, respectively) or AhR (0.1% and 0.3% change, respectively). […] Potential involvement of various CYP isoforms in the metabolism of the compound of Formula (III) was investigated by measuring the parent compound remaining after 1-hour incubation with the compound of Formula (III) (1 μM) with recombinant CYPs (rCYPs) at 100 pmol P450/mL in the presence of 1 mM NADPH at 37° C. The only isozyme that produced notable the compound of Formula (III) turnover with <1% parent remaining after 1-hour incubation was CYP3A4 (FIG. 24). […]

[5] = Covalent binding to hepatic proteins in human hepatocytes (14C label); format: in vitro ADME
Protocol: The extent of the compound of Formula (III) covalent binding to hepatic proteins was determined in human hepatocytes at 1 and 10 μM (Table 19). A ^14C label was introduced at the acrylamide carbonyl carbon of the compound of Formula (III). […] Troglitazone and pioglitazone served as positive and negative controls, respectively.

[6] = test system: IL-6 secretion, ABC-DLBCL OCI-LY-10 cells; assay: IL-6 secretion by OCI-LY-10 cells (MesoScale); format: cell-based; conditions: Homo sapiens, OCI-Ly10; 6 independent experiments; read-out: IC50, IL-6 secretion (mean±SEM)
Protocol: (§2) In Vitro Activity in DLBCL Cell Lines—NFκB signaling regulates the secretion of multiple cytokines, including interleukin (IL)-6 and IL-10. Secretion of IL-6 and -10 by ABC-DLBCL OCI-LY-10 cells was measured using a MesoScale assay. […] To determine the anti-proliferative activity of the compound of formula (III), several ABC-DLBCL cell lines—OCI-LY-3, OCI-LY-10, TMD8, and HBL-1—were treated for 8 days. […] The OCI-LY-3 cell line, which harbors a CARD11 mutation downstream of BTK in the NF-κB signaling pathway, was completely insensitive to the compound of Formula (III) up to 2 μM. In 2 experiments, OCI-LY-3 cells were insensitive to the compound of Formula (III) at all concentrations up to 10 μM.

[7] = test system: IL-10 secretion, ABC-DLBCL OCI-LY-10 cells; assay: IL-10 secretion by OCI-LY-10 cells (MesoScale); format: cell-based; conditions: Homo sapiens, OCI-Ly10; 6 independent experiments; read-out: IC50, IL-10 secretion (mean±SEM)
Protocol: as §2

[8] = test system: HBL1 (CD79b/Myd88/A20 mutant); assay: Antiproliferative activity, 8 days; format: cell-based; conditions: Homo sapiens, HBL1, 192 h, n = 4
Protocol: as §2

[9] = test system: OCI-LY10 (CD79b/Myd88/A20 mutant); assay: Antiproliferative activity, 8 days; format: cell-based; conditions: Homo sapiens, OCI-Ly10, 192 h, n = 4
Protocol: as §2

[10] = test system: TMD8 (CD79b/Myd88/A20 mutant); assay: Antiproliferative activity, 8 days; format: cell-based; conditions: Homo sapiens, TMD8, 192 h, n = 4
Protocol: as §2

P-gp (MDR1) = assay: in vitro; conditions: dog, MDCK-MDR1
Protocol: In vitro Absorption, Distribution, Metabolism, and Excretion—The compound of Formula (III) was assessed at a concentration of 5 μM in cell permeability models.

C=CC(=O)N[C@H]1CCC[C@H]1NC(=O)c1sc2nccc3c2c1NC(=O)N3c1cnc(CC(C)C)cc1C (atropisomer, axis not shown) [compound of Formula (III), N-((1R,2S)-2-Acrylamidocyclopentyl)-5-(S)-(6-isobutyl-4-methylpyridin-3-yl)-4-oxo-4,5-dihydro-3H-1-thia-3,5,8-triazaacenaphthylene-2-carboxamide]
% Free in plasma ([1]; 0.25 μM): 3.73% | fraction unbound at 2.5 μM ([1]; Sprague Dawley, rat, plasma, 2.5 μM, read-out: % Free in plasma): 0.0365 | fraction unbound at 25 μM ([1]; Sprague Dawley, rat, plasma, 25 μM, read-out: % Free in plasma): 0.0405 | blood plasma ratio at 1 μM [2]: 0.75 | blood plasma ratio at 1 μM [3]: 0.84 | Extraction Ratio, liver microsomes ([4]; Dog): 0.65 | microsomal CLint ([4]; dog, liver microsomes): 40.6 µL/min/mg | half-life ([4]; dog, liver microsomes, read-out: T1/2, liver microsomes): 17.1 min | IC50 (CYP3A4 (CYP3A); with 30 min preincubation): 9810 nM | IC50 (CYP3A4 (CYP3A); without preincubation): > 10000 nM | Compound Turnover ([5]; 1 μM study): 49.1% | Fraction Covalently Bound (fcvb) ([5]; 1 μM study): 0.07 ± 0.01 | Net Covalent Binding ([5]; 1 μM study, 0.5×10^6 cells/mL, 4.5 h): 46.8 ± 5.1 pmol eq/mg protein | Compound Turnover ([5]; 10 μM study): 70.1% | Fraction Covalently Bound (fcvb) ([5]; 10 μM study): 0.00564 ± 0.0001 | Net Covalent Binding ([5]; 10 μM study, 0.75×10^6 cells/mL, 3 h): 50.0 ± 0.8 pmol eq/mg protein | IC50 [6]: 16 ± 3 nM | IC50 [7]: 18 ± 7 nM | IC50 [8]: 30 nM | IC50 [9]: 18 nM | IC50 [10]: 34 nM | Papp A→B at 5 μM (P-gp (MDR1)): < 0.483 ×10⁻⁶ cm/s | Papp B→A at 5 μM (P-gp (MDR1)): 55.4 ×10⁻⁶ cm/s | efflux ratio at 5 μM (P-gp (MDR1)): > 115
